US12286440B2, “Penam derivative or salt thereof, pharmaceutical composition, and applications thereof” (priority 2018, dated 2025)
Converted amounts (≈) assume the structure as drawn.

Key:
Test in all cases: Antibacterial activity evaluation test, MIC by CLSI broth microdilution
Format in all cases: cell-based
Conditions in all cases: cation-adjusted Mueller Hinton medium, 35° C., 16 to 20 hours
[1] = system: VIM-2-containing Pseudomonas aeruginosa strain (S-3779)
Protocol: (§1) The minimum inhibitory concentration (MIC) was measured according to the Clinical and Laboratory Standards Institute (CLSI) standard method by using the following broth microdilution method.
(§2) As bacteria, a Pseudomonas aeruginosa strain ATCC27853, an AmpC-derepressed Pseudomonas aeruginosa mutant strain (S-3028), an IMP-1-containing Pseudomonas aeruginosa strain (S-2838), a VIM-2-containing Pseudomonas aeruginosa strain (S-3779), a GES-19 and GES-20-containing Pseudomonas aeruginosa strain (S-3759), a CTX-M-15-containing Escherichia coli strain (TK-1747), a KPC-2-containing Klebsiella pneumoniae strain (Y-995), an OXA-48-containing Klebsiella pneumoniae strain (Y-1062), and an NDM-1-containing Klebsiella pneumoniae strain (Y-1007) were used. The test bacterial cells that had been cultured overnight on a Mueller Hinton agar medium were scraped off, suspended at a density equivalent to 0.5 McFarland standard, and diluted 10-fold, thereby obtaining an inoculum. A cation-adjusted Mueller Hinton medium containing a test compound was inoculated with 0.005 mL of the inoculum, and the cells were cultured at 35° C. for 16 to 20 hours. The minimum drug concentration at which the growth of bacteria was not visually observed was defined as MIC […].
(§3) An antibacterial activity evaluation test was performed in the same manner as in Test Example 1.

[2] = system: NDM-1-containing Klebsiella pneumoniae strain (Y-1007)
Protocol: as §1, §2, §3

[3] = system: AmpC-derepressed Pseudomonas aeruginosa mutant strain (S-3028)
Protocol: as §1, §2, §3

[4] = system: GES-19 and GES-20-containing Pseudomonas aeruginosa strain (S-3759)
Protocol: as §1, §2, §3

[5] = system: IMP-1-containing Pseudomonas aeruginosa strain (S-2838)
Protocol: as §1, §2, §3

[6] = system: Pseudomonas aeruginosa strain ATCC27853
Protocol: as §1, §2, §3

[7] = system: OXA-48-containing Klebsiella pneumoniae strain (Y-1062)
Protocol: as §1, §2, §3

[8] = system: KPC-2-containing Klebsiella pneumoniae strain (Y-995)
Protocol: as §1, §2, §3

[9] = system: CTX-M-15-containing Escherichia coli strain (TK-1747)
Protocol: as §1, §2, §3

Question: With CC(C)(O/N=C(\C(=O)N[C@@H]1C(=O)N2C[C@@](C(=O)O)(N3CCN(NC(=O)C(=O)NCCNC(=O)c4ccc(O)c(O)c4Cl)C3=O)S[C@H]12)c1csc(N)n1)C(=O)O [Example 68, (3R,5R,6R)-6-((Z)-2-(2-aminothiazol-4-yl)-2-(((2-carboxypropan-2-yl)oxy)imino)acetamido)-3-(3-(2-((2-(2-chloro-3,4-dihydroxybenzamido)ethyl)amino)-2-oxoacetamido)-2-oxoimidazolidin-1-yl)-7-oxo-4-thia-1-azabicyclo[3.2.0]heptane-3-carboxylate] as the compound, how does the MIC, Pseudomonas aeruginosa S-3779 [1] read?
Answer: 2 µg/mL (≈ 2.42 µM)

Question: What about the MIC, Klebsiella pneumoniae Y-1007 [2] of the same compound?
Answer: < 0.06 µg/mL

Question: What about the MIC, Pseudomonas aeruginosa S-3028 [3] of the same compound?
Answer: 0.25 µg/mL (≈ 0.302 µM)

Question: What about the MIC, Pseudomonas aeruginosa S3759 [4] of the same compound?
Answer: 4 µg/mL (≈ 4.84 µM)

Question: What about the MIC, Pseudomonas aeruginosa S-2838 [5] of the same compound?
Answer: 1 µg/mL (≈ 1.21 µM)

Question: What about the MIC, Pseudomonas aeruginosa ATCC 27853 [6] of the same compound?
Answer: 1 µg/mL (≈ 1.21 µM)

Question: And the MIC, Klebsiella pneumoniae Y-1062 [7]?
Answer: 1 µg/mL (≈ 1.21 µM)

Question: What about the MIC, Klebsiella pneumoniae Y-995 [8] of the same compound?
Answer: 0.5 µg/mL (≈ 0.604 µM)

Question: And the MIC, Escherichia coli TK-1747 [9]?
Answer: 1 µg/mL (≈ 1.21 µM)
